Test results published in patent publication US5252579A, “Macrocyclic immunomodulators” (American Home Products Corporation, priority 1993, dated 1993).
Read-outs that look alike come from different tables or passages of the source.

Experiments:
thymocyte proliferation = experiment: comitogen-induced thymocyte proliferation procedure (LAF); type: cell-based, BALB/c mice; conditions: for IC50: read-out: LAF IC50
Experimental: (§1) Immunosuppressive activity for a representative compound of this invention was evaluated in an in vitro standard pharmacological test procedure to measure lymphocyte proliferation (LAF) and in an in vivo standard pharmacological test procedure with evaluated the survival time of a pinch skin graft.
The comitogen-induced thymocyte proliferation procedure (LAF) was used as an […] measure of the immunosuppressive effects of representative compounds. Briefly, cells from the thymus of normal BALB/c mice are cultured for 72 hours with PHA and IL-1 and pulsed with tritiated thymidine during the last six hours. Cells are cultured with and without various concentrations of rapamycin, cyclosporin A, or test compound. Cells are harvested and incorporated radioactivity is determined. Inhibition of lymphoproliferation is assessed as percent change in counts per minute from non-drug treated controls. For each compound evaluated, rapamycin was also evaluated for the purpose of comparison. An IC50 was obtained for each test compound as well as for rapamycin. The results obtained for the representative compounds of this invention were also expressed as a ratio compared with rapamycin. A positive ratio indicates immunosuppressive activity. […] Calculation of the ratio is shown below. [formula]

skin graft = experiment: pinch skin graft survival test procedure; type: in vivo, male BAB/c donors, male C3H(H-2K) recipients; conditions: 4 mg/kg of test compound; intraperitoneally or orally; untreated control 7.00 ± 0.00 days
Experimental: as §1
A representative compound of this invention was also evaluated in an in vivo test procedure designed to determine the survival time of pinch skin graft from male BAB/c donors transplanted to male C3 H(H-2K) recipients. The method is adapted from Billingham R. E. and Medawar P. B., J. Exp. Biol. 28:385-402, (1951). Briefly, a pinch skin graft from the donor was grafted on the dorsum of the recipient as a allograft, and an isograft was used as control in the same region. The recipients were treated with either varying concentrations of test compounds intraperitoneally or orally. Rapamycin was used as a test control. Untreated recipients serve as rejection control. The graft was monitored daily and observations were recorded until the graft became dry and formed a blackened scab. This was considered as the rejection day. The mean graft survival time (number of days±S.D.) of the drug treatment group was compared with the control group. […] Results are expressed as the mean survival time in days. Untreated (control) pinch skin grafts are usually rejected within 6-7 days. […]

Candida albicans = conditions: both in vitro and in vivo; cited from earlier work
[1] = alone or in combination with picibanil; cited from earlier work
[2] = test system: experimental allergic encephalomyelitis model; conditions: model for multiple sclerosis; cited from earlier work
adjuvant arthritis model = conditions: model for rheumatoid arthritis; cited from earlier work
IgE-like antibodies = conditions: cited from earlier work

| Compound | T cell proliferation inhibition (thymocyte proliferation; at 10 nM) [%] | T cell proliferation inhibition (thymocyte proliferation; at 0.1 μM) [%] | LAF ratio (compared with rapamycin) (thymocyte proliferation; ratio > 1: inhibits thymocyte proliferation to a greater extent than rapamycin) | IC50 (thymocyte proliferation; thymocytes cultured 72 hours with PHA and IL-1, tritiated thymidine) [nM] | Skin Graft survival (days ± SD) (skin graft) [days] | IC50 (thymocyte proliferation; Mus musculus, Thymocyte, 72 h) [nM] | antifungal activity (Candida albicans) | antitumor activity [1] | effect in experimental allergic encephalomyelitis model [2] | effect in adjuvant arthritis model (adjuvant arthritis model) | inhibition of formation of IgE-like antibodies (IgE-like antibodies) |
| --- | --- | --- | --- | --- | --- | --- | --- | --- | --- | --- | --- |
| 23,25-Deepoxy-23,25-(2-aminoethanethio)-rapamycin [Example 2] | 77 | 96 | 0.82 | 5.1 | 9.00 ± 0.63 | – | – | – | – | – | – |
| CO[C@H]1C[C@@H]2CC[C@@H](C)[C@@](O)(O2)C(=O)C(=O)N2CCCC[C@H]2C(=O)O[C@H]([C@H](C)C[C@@H]2CC[C@@H](O)[C@H](OC)C2)CC(=O)[C@H](C)/C=C(\C)[C@@H](O)[C@@H](OC)C(=O)[C@H](C)C[C@H](C)/C=C/C=C/C=C/1C [Rapamycin] | – | – | – | – | 11.67 ± 0.63 | 4.2 | antifungal activity, particularly against Candida albicans | antitumor activity | effective | effective | effectively inhibited |
